Measurements reported in US20250276964A1 (Novartis AG, priority 2021, published 2025).

How the values were obtained:
[1] = molecular target: T1, WIZ (Homo sapiens, UniProt O95785+Q96SW2); assay: Quantification of WIZ protein levels in HiBit tag fusion protein assay (WIZ HiBit assay in 293T cells); assay type: cell-based; details: for Dmax at 25 µM / remaining activity at 25 µM: HEK-293T; for Dmax at 25 µM: 100 minus Amax at 25 uM, read-out: % degradation of WIZ (100-Amax); for remaining activity at 25 µM: DMSO-normalized, curve-fitted percentage of WIZ-HiBit remaining at 25 uM, read-out: WIZ Amax; for DC50: WIZ HiBit assay in 293T cells, 10-point, 5-fold dilution, highest concentration 25 μM, about 18 hours, read-out: WIZ AC50
T1 construct: expressed in transfected cells
T1 sequence (O95785 whole entry, the tested form may be a part): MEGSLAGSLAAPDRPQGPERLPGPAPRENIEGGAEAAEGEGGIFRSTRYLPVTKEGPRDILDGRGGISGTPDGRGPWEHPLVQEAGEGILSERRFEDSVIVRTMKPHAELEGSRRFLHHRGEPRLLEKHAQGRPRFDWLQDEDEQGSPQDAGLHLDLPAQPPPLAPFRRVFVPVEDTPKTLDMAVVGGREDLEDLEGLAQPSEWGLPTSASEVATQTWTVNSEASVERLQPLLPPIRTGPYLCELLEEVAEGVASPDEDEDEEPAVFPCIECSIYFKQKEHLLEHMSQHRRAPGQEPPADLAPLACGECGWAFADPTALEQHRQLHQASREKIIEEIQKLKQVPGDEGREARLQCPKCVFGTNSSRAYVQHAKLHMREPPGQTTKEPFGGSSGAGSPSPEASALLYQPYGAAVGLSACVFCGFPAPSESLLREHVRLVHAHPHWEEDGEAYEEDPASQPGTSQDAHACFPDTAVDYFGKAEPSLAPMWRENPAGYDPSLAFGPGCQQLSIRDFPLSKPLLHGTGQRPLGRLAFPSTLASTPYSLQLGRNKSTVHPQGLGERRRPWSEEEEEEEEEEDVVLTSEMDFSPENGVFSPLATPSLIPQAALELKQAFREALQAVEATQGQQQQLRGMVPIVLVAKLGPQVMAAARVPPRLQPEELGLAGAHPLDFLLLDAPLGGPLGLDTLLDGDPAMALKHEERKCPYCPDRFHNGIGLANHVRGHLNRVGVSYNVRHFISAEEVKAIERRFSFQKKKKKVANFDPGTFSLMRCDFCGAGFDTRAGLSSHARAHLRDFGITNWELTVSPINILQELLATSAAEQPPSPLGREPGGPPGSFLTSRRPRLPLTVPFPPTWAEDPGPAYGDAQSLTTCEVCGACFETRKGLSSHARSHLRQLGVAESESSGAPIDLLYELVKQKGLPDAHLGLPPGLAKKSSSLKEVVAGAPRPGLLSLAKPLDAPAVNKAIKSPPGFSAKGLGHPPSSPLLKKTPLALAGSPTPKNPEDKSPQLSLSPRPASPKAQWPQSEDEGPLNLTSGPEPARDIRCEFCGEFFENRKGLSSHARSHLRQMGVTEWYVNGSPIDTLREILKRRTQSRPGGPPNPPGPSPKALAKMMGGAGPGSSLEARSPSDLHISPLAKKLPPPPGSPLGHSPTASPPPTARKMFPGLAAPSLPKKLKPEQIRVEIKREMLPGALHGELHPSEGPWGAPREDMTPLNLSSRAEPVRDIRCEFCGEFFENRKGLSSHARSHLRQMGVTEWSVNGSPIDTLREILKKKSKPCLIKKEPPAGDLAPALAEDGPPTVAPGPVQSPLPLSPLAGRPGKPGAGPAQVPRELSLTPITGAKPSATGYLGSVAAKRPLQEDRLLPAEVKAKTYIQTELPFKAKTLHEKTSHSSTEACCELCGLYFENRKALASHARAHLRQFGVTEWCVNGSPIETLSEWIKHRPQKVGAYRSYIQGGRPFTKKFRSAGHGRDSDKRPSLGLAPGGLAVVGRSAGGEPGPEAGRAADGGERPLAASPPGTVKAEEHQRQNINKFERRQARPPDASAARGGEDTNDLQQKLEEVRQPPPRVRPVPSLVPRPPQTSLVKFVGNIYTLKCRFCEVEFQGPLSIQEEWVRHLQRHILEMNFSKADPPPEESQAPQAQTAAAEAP
T1 sequence (Q96SW2 whole entry, the tested form may be a part): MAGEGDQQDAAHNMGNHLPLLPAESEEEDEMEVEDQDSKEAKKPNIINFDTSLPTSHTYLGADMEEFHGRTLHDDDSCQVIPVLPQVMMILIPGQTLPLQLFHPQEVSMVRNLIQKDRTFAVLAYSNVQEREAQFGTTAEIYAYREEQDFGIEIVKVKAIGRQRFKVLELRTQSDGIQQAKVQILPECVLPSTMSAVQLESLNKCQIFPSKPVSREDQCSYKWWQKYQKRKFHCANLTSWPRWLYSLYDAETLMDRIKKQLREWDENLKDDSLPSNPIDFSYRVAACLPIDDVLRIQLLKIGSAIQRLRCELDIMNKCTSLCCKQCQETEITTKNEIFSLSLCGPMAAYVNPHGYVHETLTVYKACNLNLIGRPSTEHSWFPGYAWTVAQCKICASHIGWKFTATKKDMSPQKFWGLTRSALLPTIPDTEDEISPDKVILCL
T1 sequence (Q16531 whole entry partner, the tested form may be a part): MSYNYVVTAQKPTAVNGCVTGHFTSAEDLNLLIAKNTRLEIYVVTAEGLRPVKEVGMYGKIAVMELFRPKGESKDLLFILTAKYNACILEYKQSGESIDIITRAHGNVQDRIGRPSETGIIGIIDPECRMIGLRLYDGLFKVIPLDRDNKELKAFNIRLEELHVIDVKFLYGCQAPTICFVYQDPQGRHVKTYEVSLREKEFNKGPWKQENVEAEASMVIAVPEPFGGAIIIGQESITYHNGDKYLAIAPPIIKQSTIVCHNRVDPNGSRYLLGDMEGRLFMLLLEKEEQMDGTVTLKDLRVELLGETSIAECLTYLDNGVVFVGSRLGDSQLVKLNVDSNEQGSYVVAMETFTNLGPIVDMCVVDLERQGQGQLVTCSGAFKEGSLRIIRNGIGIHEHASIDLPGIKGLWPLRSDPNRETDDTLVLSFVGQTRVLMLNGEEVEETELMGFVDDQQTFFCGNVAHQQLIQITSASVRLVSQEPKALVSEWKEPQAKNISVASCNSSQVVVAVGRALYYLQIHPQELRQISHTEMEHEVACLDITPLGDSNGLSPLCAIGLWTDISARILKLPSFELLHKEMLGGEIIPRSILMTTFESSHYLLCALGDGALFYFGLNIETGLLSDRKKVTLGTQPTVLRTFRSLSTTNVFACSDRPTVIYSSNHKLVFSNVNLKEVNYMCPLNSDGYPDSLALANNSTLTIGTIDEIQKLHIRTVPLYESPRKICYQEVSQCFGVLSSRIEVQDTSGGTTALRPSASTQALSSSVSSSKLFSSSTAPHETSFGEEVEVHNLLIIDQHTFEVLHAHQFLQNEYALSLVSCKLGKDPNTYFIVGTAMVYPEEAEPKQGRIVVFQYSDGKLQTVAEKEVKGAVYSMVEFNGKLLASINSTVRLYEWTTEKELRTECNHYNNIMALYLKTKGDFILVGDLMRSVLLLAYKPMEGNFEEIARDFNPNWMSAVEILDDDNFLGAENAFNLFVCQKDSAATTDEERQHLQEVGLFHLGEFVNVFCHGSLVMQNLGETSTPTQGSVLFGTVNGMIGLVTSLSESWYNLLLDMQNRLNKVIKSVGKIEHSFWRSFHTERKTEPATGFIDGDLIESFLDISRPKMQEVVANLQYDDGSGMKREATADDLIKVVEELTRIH
How it was run: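 293T cells stably carrying single-copy HiBit-WIZ (HSVTK promoter) treated ~18 h at 37 °C with 10-point, 5-fold dilutions, top 25 μM. Lytic HiBit luminescence read; Amax is DMSO-normalised, curve-fitted % WIZ-HiBit remaining at 25 uM.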

[2] = test system: Fetal Hemoglobin (HbF); assay: Small molecule HbF induction assay (erythroid differentiated mPB CD34+ cells, flow cytometry); assay type: cell-based, human; details: for EC50: Homo sapiens, mPB CD34+ cells expanded 6 days, erythroid differentiated with compound 7 days, 7-point, 1:3 dilution from 30 uM; for HbF Amax: highest percentage of cells staining positive for HbF (% HbF+ cells) in the fitted dose-response curve, DMSO baseline approximately 30-40%
Description: Cryopreserved primary human CD34^+ hematopoietic stem and progenitor cells were obtained from AllCells, LLC. The CD34^+ cells were isolated from the peripheral blood of healthy donors after mobilization by administration of granulocyte colony-stimulating factor. Cells were differentiated ex vivo toward the erythroid lineage using a 2-phase culture method. In the first phase, cells were cultured in StemSpan™ Serum-Free Expansion Media (SFEM) ([…] Technologies Inc.) supplemented with rhSCF (50 ng/mL, Peprotech®, Inc.), rhIL-6 (50 ng/mL, Peprotech®, Inc.), rhIL-3 (50 ng/mL, Peprotech®, Inc.), and rhFlt3L (50 ng/mL, Peprotech®, Inc.), and 1× antibiotic-antimycotic (Life Technologies, Thermo Fisher Scientific) for 6 days at 37° C. with 5% CO2. During the second phase, cells were cultured in erythroid differentiation media at 5,000 cells/mL in the presence of compound for 7 days at 37° C. with 5% CO2. Erythroid Differentiation Media is comprised of IMDM (Life Technologies) supplemented with insulin (10 μg/mL, Sigma Aldrich), heparin (2 U/mL Sigma Aldrich), holo-transferrin (330 μg/mL, Sigma Aldrich), human serum AB (5%, Sigma Aldrich), hydrocortisone (1 μM, […] Technologies), rhSCF (100 ng/mL, Peprotech®, Inc.), rhIL-3 (5 ng/mL, Peprotech®, Inc.), rhEPO (3 U/mL, Peprotech®, Inc.), and 1× antibiotic-antimycotic. All compounds were dissolved and diluted into dimethylsulfoxide (DMSO) and were added to culture media for a final concentration of 0.3% DMSO for testing in a 7-point, 1:3 dilution series starting at 30 uM.
For viability analysis, samples were washed and resuspended in phosphate-buffered saline (PBS) and stained with LIVE/DEAD™ Fixable Violet Dead Cell Stain Kit (Life Technologies, L34963) for 20 minutes. Cells were then washed again with PBS and resuspended in PBS supplemented with 2% fetal bovine serum (FBS), and 2 mM EDTA to prepare for cell surface marker analysis. Cells were labeled with allophycocyanin-conjugated CD235a (1:100, BD Biosciences, 551336) and Brilliant Violet-conjugated CD71 (1:100, BD Biosciences, 563767) antibodies for 20 minutes. For analysis of cytoplasmic Fetal Hemoglobin (HbF), cells were fixed and permeabilized using the Fixation (BioLegend®, 420801) and Permeabilization Wash (BioLegend®, 421002) Buffers according to the manufacturer's protocol. During the permeabilization step, cells were stained with phycoerythrin-conjugated or FITC-conjugated HbF-specific antibody (1:10-1:25, Invitrogen™, MHFH04-4) for 30 minutes. Stained cells were washed with phosphate-buffered saline before analysis on the FACSCanto™ I1 flow cytometer or LSRFortessa™ (BD Biosciences). […]
mPB CD34+ cells were expanded for 6 days, then erythroid differentiated in the presence of compound for 7 days. Cells were fixed, stained and analyzed by flow cytometry. […]

SMILES | Dmax at 25 µM [1] [%] | remaining activity at 25 µM [1] [%] | DC50 [1] [nM] | EC50 [2] [nM] | HbF Amax [2] [%]
C[C@H]1CN(Cc2ccc3onc(N4CCC(=O)NC4=O)c3c2)CCN1C [Example 29, (S)-1-(5-((3,4-dimethylpiperazin-1-yl)methyl)benzo[d]isoxazol-3-yl)dihydropyrimidine-2,4(1H,3H)-dione] | 89 | 11 | 6.4 | 45 | 80
C[C@@H]1CN(C)CCN1Cc1ccc2onc(N3CCC(=O)NC3=O)c2c1 [Example 65, (R)-1-(5-((2,4-dimethylpiperazin-1-yl)methyl)benzo[d]isoxazol-3-yl)dihydropyrimidine-2,4(1H,3H)-dione] | 84 | 16 | 89 | 172 | 76
COC[C@H]1CN(Cc2ccc3onc(N4CCC(=O)NC4=O)c3c2)CCN1C [Example 117, (R)-1-(5-((3-(methoxymethyl)-4-methylpiperazin-1-yl)methyl)benzo[d]isoxazol-3-yl)dihydropyrimidine-2,4(1H,3H)-dione] | 87 | 13 | 578 |  | 
CN1CCN(Cc2ccc3onc(N4CCC(=O)NC4=O)c3c2)C[C@@H]1C(F)F [Example 118, (R)-1-(5-((3-(difluoromethyl)-4-methylpiperazin-1-yl)methyl)benzo[d]isoxazol-3-yl)dihydropyrimidine-2,4(1H,3H)-dione] | 80 | 20 | 208 |  | 
O=C1CCN(c2noc3ccc(CN4CCN(C5CC5)CC4)cc23)C(=O)N1 [Example 119, 1-(5-((4-cyclopropylpiperazin-1-yl)methyl)benzo[d]isoxazol-3-yl)dihydropyrimidine-2,4(1H,3H)-dione] | 86 | 14 | 189 |  | 

Continued, in another order:

Dmax at 25 µM [1] [%] | remaining activity at 25 µM [1] [%] | DC50 [1] [nM] | EC50 [2] [nM] | SMILES | HbF Amax [2] [%]
83 | 17 | 538 |  | C[C@@H]1CN(C2CC2)CCN1Cc1ccc2onc(N3CCC(=O)NC3=O)c2c1 [Example 120, (R)-1-(5-((4-cyclopropyl-2-methylpiperazin-1-yl)methyl)benzo[d]isoxazol-3-yl)dihydropyrimidine-2,4(1H,3H)-dione] | 
91 | 9 | 149 |  | CC(c1ccc2onc(N3CCC(=O)NC3=O)c2c1)N1CCN(C)CC1 (stereo not shown) [Example 127, 1-(5-(1-(4-methylpiperazin-1-yl)ethyl)benzo[d]isoxazol-3-yl)dihydropyrimidine-2,4(1H,3H)-dione] | 
88 | 12 | 7 |  | Cc1c(CN2CCN(CC(C)C)[C@@H](C)C2)ccc2onc(N3CCC(=O)NC3=O)c12 [Example 128, (S)-1-(5-((4-isobutyl-3-methylpiperazin-1-yl)methyl)-4-methylbenzo[d]isoxazol-3-yl)dihydropyrimidine-2,4(1H,3H)-dione] | 
86 | 14 | 9 |  | Cc1c(CN2CCN(C)[C@@H](C)C2)ccc2onc(N3CCC(=O)NC3=O)c12 [Example 129, (S)-1-(5-((3,4-dimethylpiperazin-1-yl)methyl)-4-methylbenzo[d]isoxazol-3-yl)dihydropyrimidine-2,4(1H,3H)-dione] | 
86 | 14 | 6 |  | Cc1c(CN2CCN(CC3CC3)[C@@H](C)C2)ccc2onc(N3CCC(=O)NC3=O)c12 [Example 130, (S)-1-(5-((4-(cyclopropylmethyl)-3-methylpiperazin-1-yl)methyl)-4-methylbenzo[d]isoxazol-3-yl)dihydropyrimidine-2,4(1H,3H)-dione] | 
